Test results as given in PubChem BioAssay (NCI).
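How tested: cells in 96-well plates exposed to compound for 48 hours at five concentrations. GI50: concentration for 50% inhibition of growth. TGI: total growth inhibition.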 Where a SMILES comes first, the peptide text is derived from it. [ ]: non-standard residue; d: D form. The star is where a group is joined. ξ: configuration not given here. ξF = NC(Cc1ccccc1)C(=O)O; Cbz = O=C(OCc1ccccc1)*; Aib = CC(C)(N)C(=O)O

Assays:
Assay in all cases: NCI anticancer screen, dose series, 48 h
OVCAR-3 ovarian = test system: OVCAR-3 ovarian
IGROV1 ovarian = test system: IGROV1 ovarian
HCT-116 colon = test system: HCT-116 colon
RPMI-8226 leukemia = test system: RPMI-8226 leukemia
NCI-H226 lung = test system: NCI-H226 lung
OVCAR-4 ovarian = test system: OVCAR-4 ovarian
HT29 colon = test system: HT29 colon
SN12C renal = test system: SN12C renal
SR leukemia = test system: SR leukemia
RXF 393 renal = test system: RXF 393 renal

| Compound | TGI (OVCAR-3 ovarian) [µM] | TGI (IGROV1 ovarian) [µM] | TGI (HCT-116 colon) [µM] | TGI (RPMI-8226 leukemia) [µM] | TGI (NCI-H226 lung) [µM] | TGI (OVCAR-4 ovarian) [µM] | TGI (HT29 colon) [µM] | TGI (SN12C renal) [µM] | TGI (SR leukemia) [µM] | TGI (RXF 393 renal) [µM] | GI50 (OVCAR-3 ovarian) [nM] | GI50 (IGROV1 ovarian) [nM] | GI50 (OVCAR-4 ovarian) [nM] | GI50 (HT29 colon) [µM] | GI50 (RXF 393 renal) [nM] |
| --- | --- | --- | --- | --- | --- | --- | --- | --- | --- | --- | --- | --- | --- | --- | --- |
| COC1C(O)CC(OC2C(C)OC(Oc3cc(O)c4c(O)c5c(cc4c3)C[C@@H]([C@H](OC)C(=O)[C@@H](O)[C@@H](C)O)[C@H](OC3CC(OC4CC(OC6CC(C)(O)C(O)C(C)O6)C(O)C(C)O4)C(O)C(C)O3)C5=O)CC2OC(C)=O)OC1C (stereo not given in full) | > 100 | > 100 | > 100 | > 100 | > 100 | > 100 | > 100 | > 100 | > 100 | – | – | – | – | – | – |
| COc1ccc2c(c1)O[C@@H]1C(O)Oc3cc(OC)c(OC)cc3[C@]1(O)C2=O (stereo not given in full) | > 100 | > 100 | > 100 | > 100 | 83.9 | > 100 | > 100 | > 100 | – | > 100 | – | – | – | – | – |
| COc1ccc2[nH]c3c(c2c1)CCN(C)CC3 | > 100 | > 100 | > 100 | > 100 | – | > 100 | > 100 | – | – | – | – | – | – | – | – |
| CCC(C)[C@H](NC(=O)N[C@H](C)c1ccccc1)C(=O)OC (stereo not given in full) | > 100 | > 100 | > 100 | > 100 | > 100 | > 100 | > 100 | > 100 | > 100 | – | – | – | – | – | – |
| CC1OC(OCC2OC(Oc3c(-c4ccc(O)cc4)oc4cc(O)cc(O)c4c3=O)C(OC3OCC(O)(CO)C3O)C(O)C2O)C(O)C(O)C1O (stereo not given) | > 100 | > 100 | > 100 | > 100 | > 100 | > 100 | > 100 | > 100 | > 100 | – | – | – | – | – | – |
| CCNC(=O)Nc1cccc(C)n1 | > 100 | > 100 | > 100 | – | > 100 | > 100 | > 100 | > 100 | > 100 | > 100 | – | – | – | – | – |
| CN(C)c1ccc(/C=N/Nc2nc3ccccc3c(=O)n2-c2ccccc2)cc1 | > 100 | > 100 | > 100 | – | > 100 | 70.2 | > 100 | > 100 | > 100 | > 100 | – | – | – | – | – |
| CCC(CCCN)Nc1cc(OC)cc2cccnc12 (stereo not given) | > 100 | > 100 | > 100 | – | > 100 | > 100 | > 100 | > 100 | > 100 | > 100 | – | – | – | – | – |
| COC(=O)C12Oc3ccc(-c4ccc5c(c4O)C(=O)C4=CCC(C)C(O)C4(C(=O)OC)O5)c(O)c3C(=O)C1=CCC(C)C2O (stereo not given) | 2.9 | 3.81 | 2.15 | – | 3.77 | 6.1 | 4.61 | 5.46 | > 100 | 3.03 | – | – | – | – | – |
| CC(C)/C(Cl)=N/OC(=O)Nc1ccc(F)c(Cl)c1 | 9.11 | 28.4 | 6.77 | 2.97 | 30.9 | 24.3 | 13.3 | 3.21 | – | 25.6 | – | – | – | – | – |
| c1ccc2c(-c3cnc(-c4c[nH]c5ccccc45)cn3)c[nH]c2c1 | > 100 | > 100 | 94.2 | > 100 | – | > 100 | – | > 100 | > 100 | > 100 | – | – | – | – | – |
| COc1ccc(N[C@H](CS(=O)c2ccc(C)cc2)c2ccc(F)cc2)cc1 (stereo not given in full) | > 100 | 47.4 | > 100 | > 100 | – | > 100 | > 100 | > 100 | – | > 100 | – | – | – | – | – |
| CC(=O)C1CC(C)=CCC12C(=O)Nc1ccccc12 (stereo not given) | > 100 | > 100 | > 100 | > 100 | > 100 | > 100 | > 100 | > 100 | – | 68.9 | – | – | – | – | – |
| Cc1ccc(C(=O)N(C2CCCCC2)C2CCCCC2)cc1N=NN(C)C | 19.2 | 32.4 | 27.8 | > 100 | 39.5 | 24 | 16.6 | 28.7 | 76.7 | – | – | – | – | – | – |
| CC(=O)NCCCCNCCCNC(C)=O | – | > 100 | > 100 | > 100 | > 100 | > 100 | > 100 | > 100 | – | > 100 | – | – | – | – | – |
| C=CC(=O)N1C/C(=C\c2ccc(N(C)C)cc2)C(=O)/C(=C/c2ccc(N(C)C)cc2)C1 | > 100 | > 100 | > 100 | – | > 100 | > 100 | > 100 | > 100 | – | > 100 | – | – | – | – | – |
| Cc1cn(C2CC(n3cc(Cn4cc(F)c(=O)[nH]c4=O)nn3)C(CO)O2)c(=O)[nH]c1=O (stereo not given) | > 100 | > 100 | > 100 | > 100 | > 100 | > 100 | – | > 100 | – | > 100 | – | – | – | – | – |

| Compound | TGI (OVCAR-3 ovarian) [µM] | TGI (IGROV1 ovarian) [µM] | TGI (HCT-116 colon) [µM] | TGI (RPMI-8226 leukemia) [µM] | TGI (NCI-H226 lung) [µM] | TGI (OVCAR-4 ovarian) [µM] | TGI (HT29 colon) [µM] | TGI (SN12C renal) [µM] | TGI (SR leukemia) [µM] | TGI (RXF 393 renal) [µM] | GI50 (OVCAR-3 ovarian) [nM] | GI50 (IGROV1 ovarian) [nM] | GI50 (OVCAR-4 ovarian) [nM] | GI50 (HT29 colon) [µM] | GI50 (RXF 393 renal) [nM] |
| --- | --- | --- | --- | --- | --- | --- | --- | --- | --- | --- | --- | --- | --- | --- | --- |
| Cc1ccc(F)cc1NC(=O)O/N=C(\Cl)C(C)C | 13.9 | 33.6 | 35.3 | 4 | 28.5 | 33.1 | 37 | 11.4 | – | 9.51 | – | – | – | – | – |
| O=C(NCCN(CCNC(=O)c1cccc(=O)n1O)CCN(CCNC(=O)c1cccc(=O)n1O)CCNC(=O)c1cccc(=O)n1O)c1cccc(=O)n1O | > 100 | > 100 | > 100 | > 100 | > 100 | > 100 | > 100 | > 100 | – | > 100 | – | – | – | – | – |
| Cc1c(-c2c(C)c3ccccc3n2S(=O)(=O)c2ccccc2)n(S(=O)(=O)c2ccccc2)c2ccccc12 | > 100 | > 100 | > 100 | > 100 | > 100 | > 100 | > 100 | > 100 | > 100 | – | – | – | – | – | – |
| O=C(CSc1nc2ccccc2[nH]1)Nc1ccc(-c2nc3ccccc3s2)c(Cl)c1 | 4.55 | 4.99 | – | – | – | > 100 | > 100 | – | – | 8.85 | 2170 | 1600 | 2560 | 4.79 | 2660 |
| Cc1cnoc1NC1=CC(=O)C(=O)c2ccccc21 | > 100 | > 100 | 70.8 | 50.3 | > 100 | > 100 | 90 | 3.53 | > 100 | – | – | – | – | – | – |
| Cc1ccc2c(=O)cc(-c3csc4ccccc34)[nH]c2n1 | < 0.01 | 16.7 | 9.38 | 15 | 0.0863 | – | 0.0481 | 10.9 | 0.142 | – | – | – | – | – | – |
| CCN1CC(C)Cn2c(=O)[nH]c3cc(Br)cc1c32 (stereo not given) | 77.5 | > 100 | > 100 | > 100 | > 100 | > 100 | > 100 | > 100 | – | 37.3 | – | – | – | – | – |
| COc1ccc(N(C(=O)Nc2ccc(Cl)c(Cl)c2)c2ccccc2)cc1 | > 10 | > 10 | > 10 | – | > 10 | > 10 | > 10 | > 10 | > 10 | > 10 | – | – | – | – | – |
| CCC1C(=O)C[C@H]2[C@@H]3C(O)CC4=CC(=O)CC[C@]4(C)[C@H]3CC[C@]12C (stereo not given in full) | > 50 | > 50 | > 50 | > 50 | – | > 50 | > 50 | > 50 | – | – | – | – | – | – | – |
| Cc1c(C)c(C)c(-n2[nH]c(=O)n(C)c2=O)c(C)c1C | > 100 | > 100 | > 100 | > 100 | > 100 | – | > 100 | > 100 | > 100 | – | – | – | – | – | – |
| CCCCOC(=O)CNC(=O)OCCCCC#CC#CCCCCOC(=O)NCC(=O)OCCCC | – | > 100 | > 100 | > 100 | > 100 | > 100 | > 100 | > 100 | > 100 | – | – | – | – | – | – |
| O=[N+]([O-])c1cccc(-c2csc(N=Nc3c(O)[nH]c4ccccc34)n2)c1 | > 100 | 54.6 | 33.2 | – | 47.6 | 61.7 | 44.5 | 49.7 | 96.9 | 77.9 | – | – | – | – | – |
| COc1cccc2cc(C)c(C(=O)c3ccccc3)nc12 | > 100 | > 100 | > 100 | > 100 | > 100 | > 100 | – | > 100 | – | > 100 | – | – | – | – | – |
| CC(C)(NC(=O)OCc1ccccc1)C(=O)NC(Cc1ccccc1)C(=O)O (stereo not given) (Cbz-[Aib]-[ξF]-OH) | > 100 | > 100 | > 100 | > 100 | > 100 | > 100 | > 100 | > 100 | – | – | – | – | – | – | – |
| CC(=O)Oc1ccc(/C=C/C(=O)O[C@@H](C)[C@H](C)OC(=O)/C=C/c2ccc(OC(C)=O)c(OC(C)=O)c2)cc1OC(C)=O | 51.6 | > 100 | > 100 | 39.1 | – | > 100 | – | > 100 | > 100 | 44.6 | – | – | – | – | – |
| CCCCCc1cc(OC(=O)c2c(O)cc(OC)cc2CCCCC)cc(O)c1C(=O)O | – | 32.5 | – | 71.2 | – | 41.3 | 29.9 | 32.8 | – | 30.8 | – | – | – | – | – |
| N#CC1=C2Sc3ccccc3N2[C@H](c2ccccc2)[C@H]2COC(=O)[C@@H]12 | > 100 | – | > 100 | 87.2 | > 100 | > 100 | – | – | – | > 100 | – | – | – | – | – |
